{"source": "patent US9958434B2", "about": "“Fluorescent probe sensing tyrosine kinase and use thereof” (POSTECH ACADEMY-INDUSTRY FOUNDATION, priority 2013, dated 2018)", "key": {"[1]": {"biological_target": "T1, Src (Homo sapiens, UniProt P12931)", "T1 construct": "purchased Carna Biosciences", "T1 sequence (P12931 whole entry)": "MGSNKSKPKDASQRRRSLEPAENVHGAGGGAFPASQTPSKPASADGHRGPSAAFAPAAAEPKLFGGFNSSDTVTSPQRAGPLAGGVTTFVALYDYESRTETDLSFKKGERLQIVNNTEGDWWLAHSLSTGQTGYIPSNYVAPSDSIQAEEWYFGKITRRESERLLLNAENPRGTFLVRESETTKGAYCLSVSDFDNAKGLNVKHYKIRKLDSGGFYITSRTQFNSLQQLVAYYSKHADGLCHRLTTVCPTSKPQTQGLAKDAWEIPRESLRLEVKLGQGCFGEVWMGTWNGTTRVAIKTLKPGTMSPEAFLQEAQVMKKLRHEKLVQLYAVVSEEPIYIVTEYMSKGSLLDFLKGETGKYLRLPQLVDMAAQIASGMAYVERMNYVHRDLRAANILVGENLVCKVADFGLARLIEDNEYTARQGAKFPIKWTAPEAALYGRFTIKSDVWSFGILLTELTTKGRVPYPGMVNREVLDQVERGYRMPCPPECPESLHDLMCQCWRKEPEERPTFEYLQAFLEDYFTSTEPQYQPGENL", "assay": "Protein binding selectivity by change in fluorescence (fluorescence turn-on on binding)", "procedure": "More particularly, to determine whether compound 1 selectively binds to a kinase enzyme, various proteins (including a kinase enzyme) were used to check a change in fluorescence. In this experiment, a buffer (100 mM HEPES buffer, pH 7.4) was used as the solvent, and a kinase commercially available from Carna Biosciences was used as the kinase enzyme. Here, each kinase enzyme was stored at −80° C. together with a solvent (50 mM Tris-HCl, 150 mM NaCl, 0.1% CHAPS, 1 mM DTT, and 10% Glycerol, pH 7.5) kindly provided by the manufacturer. […] A 96-well fluorescence assay plate (commercially available from SPL Life Science) was used as a plate used upon measurement of fluorescence, and a VCITOR 3 multilabel counter (commercially available from Perkin Elmer-Wellesley) was used as a measuring machine. A 355 nm-thick filter was used to produce excitation wavelengths of the measuring machine, and a 535 nm-thick filter was used to produce emission wavelengths of the measuring machine. Stirring was performed at 37° C. for 24 hours at a rotary speed of 170 rpm using an NB-205Q model (commercially available from N-BIOTEK). Compound 1 was dissolved in a DMSO solution (1 mM, 10 mM, 50 mM, 100 mM, and 200 mM) to be used, and DMSO in every tube was adjusted to be substantially the same content (less than 1%) under the finally used solvent conditions. Mg^2+ and ATP were used at a content of 1 mM.\nIn the graph shown in FIG. 2, the horizontal axis represents kinds of proteins, and the vertical axis represents fluorescence intensities of the proteins. Each experimental value was basically an average value of three experiments conducted through the same course for preparing for experiments, a concentration of compound 1 used was 100 μM, and an amount of each protein was 0.2 μg/mL. The kinds of proteins indicated on the horizontal axis are as follows. […]\nMore particularly, the solvent and experiment conditions used were substantially the same as in Example 3. In the graph shown in FIG. 7, A represents a fluorescence intensity when compound 1 (100 μM) is used alone, B represents a fluorescence intensity when Mg (1 mM) is added to compound 1, C represents a fluorescence intensity when ATP (1 mM) is added to compound 1, and D represents a fluorescence intensity when compound 1 is treated with Mg (1 mM) and ATP (1 mM) at the same time.\nMore particularly, a concentration of the kinase enzyme was set to 0.2 μg/mL, fluorescence intensity according to the concentration of compound 1 was measured in the presence of Mg (1 mM) and ATP (1 mM), and the solvent conditions and other conditions were substantially the same as in Example 3."}, "[2]": {"tested_on": "CT-26 cancer cells", "assay": "Emission wavelengths of fluorescence in cancer cells using an optical fiber", "type": "cell-based, mouse", "settings": "CT-26 cells treated with compound 1 as in Example 12", "procedure": "More particularly, CT-26 cancer cells were treated with compound 1 in the same manner as performed in Example 12, and emission wavelengths of fluorescence were then determined using an optical fiber. The optical fiber was connected to a spectrofluorometer (FL1039, HORIBA), and ranges of excitation wavelengths and emission wavelengths are substantially the same as in Example 12. Then, the emission wavelengths of fluorescence were determined."}, "[3]": {"tested_on": "mouse cutaneous melanoma cells (B16F10)", "assay": "Cytotoxicity, cell counting kit-8 (CCK-8)", "type": "cell-based", "settings": "B16F10, 0 to 200 μM, incubated for an hour", "procedure": "The present inventors confirmed the cytotoxicity of compound 1 in mouse cutaneous melanoma cells (B16F10) using a cell counting kit-8 (CCK-8) method (Dojindo laboratories, Kumamoto, Japan).\nMore particularly, the B16F10 cells were incubated for 24 hours (at 37° C.) at a density of 5000 cells/well in a 96-well plate under a 5% CO2 atmosphere. The cells were treated with an increasing concentration of compound 1 (10 μM, 30 μM, 50 μM, 100 μM, and 200 μM) in a DMSO solvent, and then incubated for an hour. Thereafter, the cells were treated with 10 μL of a CCK-8 solution, and then incubated for 2 hours."}, "[4]": {"assay": "Absorbance and fluorescence in HEPES buffer", "type": "physicochemical", "settings": "10 mM HEPES buffer, pH 7.5", "procedure": "The present inventors measured absorbance and a change in fluorescence of compound 1 under various solvent conditions.\nThe present inventors measured the absorbance and fluorescence of compound 1 in a buffer (pH 7.5, 10 mM HEPES). A UV/Vis spectrophotometer commercially available from HP was used to analyze the UV/Vis absorption spectra, and a photon technical international fluorescence system commercially available from PTI was used to analyze the fluorescence spectra. In this case, a cell used when compound 1 was put into each type of equipment was a standard quartz cell having a thickness of 1 cm.\nIn addition to compound 1, compound 5 was shown as a reference material in FIG. 1. In this case, compound 5 is a reference material obtained by introducing an alkyl group into a —OH group of compound 1 to remove an intramolecular hydrogen bond.\nThe panels (a) and (b) of the graph show the absorbances and fluorescence intensities of compound 5 and compound 1 under a solvent condition (for example, a 10 mM HEPES buffer, pH 7.5)."}}}
{"smiles": "CN(C)c1ccc2cc(C=O)c(O)cc2c1", "note": "[compound 1, 6-(dimethylamino)-3-hydroxyl-2-naphthaldehyde]", "values": [{"measurement": "fluorescence intensity", "setting": "[1]; compound 1 100 μM, protein 0.2 μg/mL, with Mg and ATP (1 mM), 37° C. 24 hours", "result": "increase in fluorescence"}, {"measurement": "fluorescence intensity, effect of cofactors", "setting": "[1]; compound 1 100 μM, case D: Mg (1 mM) and ATP (1 mM) together", "result": "highest increase in fluorescence intensity"}, {"measurement": "fluorescence signal intensity according to concentration of kinase enzyme", "setting": "[1]; compound 1 100 μM, enzyme 0.2 μg and 1 μg", "result": "stronger fluorescence signal intensity at higher concentrations"}, {"measurement": "increase in fluorescence intensity", "setting": "[1]; compound 1 at approximately 50 μM, kinase 0.2 μg/mL, Mg 1 mM, ATP 1 mM", "result": "approximately 50%"}, {"measurement": "emission wavelength of fluorescence in cells", "setting": "[2]", "result": "around 550 nm"}, {"measurement": "cell viability", "setting": "[3]", "result": "more than 90%"}, {"measurement": "fluorescence emission", "setting": "[4]", "result": "did not emit fluorescence"}, {"measurement": "maximum absorbance", "setting": "[4]", "result": 390, "unit": "nm"}]}
